Literature values in the CATMoS acute toxicity set (Mansouri et al. 2021).

Assay: rat acute oral toxicity
Conditions: in vivo

Row | Compound | LD50 [mg/kg]
1 | CC[N+]1(CC)CCC(=C(c2ccccc2)c2ccccc2)C1C (stereo not drawn) | 1090
2 | CC(=O)Nc1ccc(C)c(NS(=O)(=O)C(F)(F)F)c1 | 2580
3 | CN1CCN=C(c2ccccc2)c2cc(Cl)ccc21 | 900
4 | c1ccc(P(C2CCCCC2)C2CCCCC2)cc1 | 820
5 | CC(C(=O)O)c1ccc2oc(-c3ccc(Cl)cc3)nc2c1 (stereo not drawn) | 118
6 | CC(C)(C)C(=O)CCC1C(=O)N(c2ccccc2)N(c2ccccc2)C1=O | 455
7 | CCCCNC(N)=O | 1260
8 | CCCCOc1c(Cl)c(Cl)c(Cl)c(Cl)c1Cl | 600
9 | COc1ccc(OC)c(CC(C)N)c1 (racemic) | 171
10 | C[C@H]1[C@H](c2ccccc2)OCCN1C | 455
11 | CCCCOC(CBr)c1ccccc1 (stereo not drawn) | 250
12 | O=C(OC[C@H]1O[C@@H](OC(=O)c2cc(O)c(O)c(OC(=O)c3cc(O)c(O)c(O)c3)c2)[C@H](OC(=O)c2cc(O)c(O)c(OC(=O)c3cc(O)c(O)c(O)c3)c2)[C@@H](OC(=O)c2cc(O)c(O)c(OC(=O)c3cc(O)c(O)c(O)c3)c2)[C@@H]1OC(=O)c1cc(O)c(O)c(OC(=O)c2cc(O)c(O)c(O)c2)c1)c1cc(O)c(O)c(OC(=O)c2cc(O)c(O)c(O)c2)c1 | 2260
13 | CCN(CCO)c1ccccc1 | 1640
14 | CCN(CC)C(=S)N/N=C/c1ccc([N+](=O)[O-])o1 | 750
15 | N#CC1(O)CCCCC1 | 10
16 | CCCCOCCOCC | 2830
17 | C=CCC1(C(C)SCCCC)C(=O)N=C(O)NC1=O (stereo not drawn) | 639
18 | CC(C)(C)NCC(O)c1ccc(O)c(CO)n1 (stereo not drawn) | 2800
19 | CCCCCCCCCCCCN(CCC(=O)O)CCC(=O)O | 31300
20 | Nc1ccc2c(c1)Cc1cc(N)ccc1-2 | 1070
21 | Cc1ccc(C(N)=O)cc1N | 1730
22 | O=C1CN(/N=C/c2ccc([N+](=O)[O-])o2)C(O)=N1 | 1490
23 | CC(C)=CC(NC(=O)C1=C([O-])c2sc(Cl)cc2S(=O)(=O)N1C)[n+]1ccccc1 (stereo not drawn) | 10

Row | Compound | LD50 [mg/kg]
24 | C=CC=CC=CCCCCC | 7560
25 | CCOP(=S)(OCC)SC1OCCOC1SP(=S)(OCC)OCC (stereo not drawn) | 20
26 | FC(F)(F)c1nc2c(Cl)c(Cl)c(Cl)c(Cl)c2[nH]1 | 0.245
27 | CCC(=O)O[C@@H]1CC(=O)O[C@H](C)C/C=C/C=C/[C@H](O)[C@H](C)C[C@H](CC=O)[C@H](O[C@@H]2O[C@H](C)[C@@H](O[C@H]3C[C@@](C)(O)[C@@H](OC(=O)CC)[C@H](C)O3)[C@H](N(C)C)[C@H]2O)[C@H]1OC | 9600
28 | CCOCCOC(=O)C(C)Oc1ccc(Oc2ncc(C(F)(F)F)cc2Cl)cc1 (stereo not drawn) | 518
29 | CCC(C)Nc1ccc(NC(C)CC)cc1 (stereo not drawn) | 148
30 | CN1CCN(CCCCCCCCNC(=O)Oc2ccc3c(c2)C2(C)CCN(C)C2N3C)CC1 (stereo not drawn) | 27.7
31 | CC(C)(C)C(O)/C(=C\c1ccc(Cl)cc1)n1cncn1 (stereo not drawn) | 1790
32 | CCN(CC)S(=O)(=O)CCNC(=O)N(CCCl)N=O | 60
33 | Cc1c(Cl)ccc(C(C)c2ccccc2)c1C (stereo not drawn) | 2130
34 | C[C@H]1CCCCN1N=O | 600
35 | COc1ccc([C@@H]2Sc3ccccc3N(CCN(C)C)C(=O)[C@@H]2OC(C)=O)cc1 | 560
36 | NCC(CC(=O)O)c1ccc(Cl)cc1 (stereo not drawn) | 145
37 | NC(=S)NC(=S)Nc1ccccc1 | 250
38 | CC(=O)OC(C)CC(C)C (stereo not drawn) | 6160
39 | CC=CC=CC(=O)NO | 2460
40 | Cc1ccc(C(=O)c2cccc3c2CCC3C(=O)O)cc1 (stereo not drawn) | 244
41 | COP(=O)(OC)OC(Cl)C(Cl)(Br)Br (stereo not drawn) | 49
42 | O=C1OC(=O)C2CCCCC12 (stereo not drawn) | 4040
43 | CC(O)(c1ccc(Cl)cc1)c1ccc(Cl)cc1 | 500
44 | C=CCCC(=O)Cl | 470
45 | c1ccc([Si]23OCCN(CCO2)CCO3)cc1 | 1.48
46 | CC(=NOC(=O)N(C)SSN(C)C(=O)ON=C(C)SCCC#N)SCCC#N | 80

Row | Compound | LD50 [mg/kg]
47 | Cc1[nH]c(=O)c(C#N)cc1-c1ccc2nccn2c1 | 7800
48 | N#CSCSC#N | 55
49 | CC(C)(COCC1CO1)COCC1CO1 (stereo not drawn) | 4500
50 | CNC(=O)ON=C1CSCCSC1 | 400
51 | COc1ccc2c(c1)c(CC(=O)Oc1cccc(C(F)(F)F)c1)c(C)n2C(=O)c1ccc(Cl)cc1 | 307
52 | C[N+]1(CC2COC(c3ccccc3)(C3CCCCC3)O2)CCCCC1 (stereo not drawn) | 494
53 | CCOC(=O)c1ccc(OC)cc1 | 2040
54 | O=P(O)(O)Oc1ccccc1 | 2290
55 | COC(C)=NC#N | 432
56 | CN(N=O)C(=O)C(=O)N(C)N=O | 96
57 | CC1=CC=C(C(C)C)CC1 | 1680
58 | O=C(Nc1ccc([N+](=O)[O-])cc1)OCc1cccnc1 | 14
59 | CCCCN(CCCCO)N=O | 1800
60 | Cc1cc(CCN2CCN(c3cccc(Cl)c3)CC2)n[nH]1 | 570
61 | COc1cc(C(=O)OCCCCN2CCN(c3ccccc3)CC2)cc(OC)c1OC | 2500
62 | CCO[SiH](Cl)OCC | 6300
63 | C[N+]1(CCCl)CCCO1 (stereo not drawn) | 3
64 | CCCCC(C)(C)O | 820
65 | CCCCC(CC)COP(=O)(O)OCC(CC)CCCC (stereo not drawn) | 4940
66 | CCCCOC(=O)CC(C(=O)OCCCC)P(=O)(OCCCC)OCCCC (stereo not drawn) | 25000
67 | C=CC(C)(O)CC (stereo not drawn) | 700
68 | CCCCCC1=C(C)CCC1=O | 2500
